Source: US20230303547A1, “N-CYANOPYRROLIDINES WITH ACTIVITY AS USP30 INHIBITORS” (MISSION THERAPEUTICS LIMITED, priority 2020, published 2023)
Where two headings read alike, the source gives them in different places.

Tests used:
[1] = biological target: UCHL1 (Homo sapiens (Human), UniProt P09936); assay: UCHL1 DUB IC50; type: biochemical; settings: for DUB selectivity preference for USP30 v UCHL1: fold
[2] = biological target: USP30 (Homo sapiens (Human), UniProt Q70CQ3); assay: USP30 biochemical IC50 assay (fluorescence polarisation)
USP30, sequence (Q70CQ3 57-517): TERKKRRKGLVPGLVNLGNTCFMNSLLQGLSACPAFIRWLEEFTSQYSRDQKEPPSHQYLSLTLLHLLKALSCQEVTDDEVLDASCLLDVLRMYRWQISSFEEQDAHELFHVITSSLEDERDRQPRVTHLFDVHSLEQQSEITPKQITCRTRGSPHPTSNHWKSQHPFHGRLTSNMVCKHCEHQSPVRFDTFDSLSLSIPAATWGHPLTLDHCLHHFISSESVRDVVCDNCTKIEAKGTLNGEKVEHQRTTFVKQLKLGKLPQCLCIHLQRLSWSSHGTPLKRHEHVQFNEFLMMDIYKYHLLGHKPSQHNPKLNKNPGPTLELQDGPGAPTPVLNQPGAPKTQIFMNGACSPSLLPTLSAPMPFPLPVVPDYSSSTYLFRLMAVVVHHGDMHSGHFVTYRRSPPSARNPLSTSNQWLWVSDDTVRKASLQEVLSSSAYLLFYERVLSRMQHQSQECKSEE
Experimental: It is generally desirable to maximise the potency of a drug molecule against the target enzyme in relevant assays in order to lower the effective/efficacious dosage that is to be administered to patients. Compounds of the invention may be tested for USP30 affinity using the in vitro biochemical fluorescence polarization (FP) assay described herein.
Dilution plates were prepared at 21 times the final concentration (2100 µM for a final concentration of 100 µM) in 50% DMSO in a 96-well polypropylene V-bottom plate (Greiner #651201). A typical 8-point dilution series would be 100, 30, 10, 3, 1, 0.3, 0.1, 0.03 µM final. Reactions were performed in duplicate in black 384 well plates (small volume, Greiner 784076) in a final reaction volume of 21 µl. Either 1 µl of 50% DMSO or diluted compound was added to the plate. USP30 (Boston Biochem #E582) was diluted in reaction buffer (40 mM Tris, pH 7.5, 0.005% Tween 20, 0.5 mg/ml BSA, 5 mM beta-mercaptoethanol) to achieve a final assay concentration of 4 nM, and 10 µl of diluted USP30 was added to the compound. Enzyme and compound were incubated for 30 min at room temp. Reactions were initiated by the addition of 50 nM of TAMRA labelled peptide linked to ubiquitin via an iso-peptide bond as fluorescence polarisation substrate. Reactions were read immediately after addition of substrate and following a 2-hour incubation at room temperature. Readings were performed on a Pherastar Plus (BMG Labtech). λ Excitation 540 nm; λ Emission 590 nm.

[3] = biological target: Cathepsin L (Homo sapiens (Human), UniProt P07711); assay: Cathepsin L IC50; type: biochemical
Cathepsin L, sequence (P07711 114-333, species assumed): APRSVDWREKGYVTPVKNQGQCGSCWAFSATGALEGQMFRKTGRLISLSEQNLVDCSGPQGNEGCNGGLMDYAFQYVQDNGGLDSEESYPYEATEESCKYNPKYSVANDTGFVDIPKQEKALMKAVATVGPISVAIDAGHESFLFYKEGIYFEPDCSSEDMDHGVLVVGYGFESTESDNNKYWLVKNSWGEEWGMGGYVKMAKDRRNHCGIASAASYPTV

[4] = biological target: Cathepsin B (Homo sapiens (Human), UniProt P07858); assay: Cathepsin B IC50; type: biochemical
[5] = system: cathepsins (B, K, L, S and V); assay: Cathepsin panel summary; type: biochemical; settings: for Selectivity preference for USP30 v cathepsins: fold; for IC50: summary over the five cathepsins
[6] = biological target: Cathepsin V (Homo sapiens (Human), UniProt O60911); assay: Cathepsin V IC50; type: biochemical
Cathepsin V, sequence (O60911 114-334, species assumed): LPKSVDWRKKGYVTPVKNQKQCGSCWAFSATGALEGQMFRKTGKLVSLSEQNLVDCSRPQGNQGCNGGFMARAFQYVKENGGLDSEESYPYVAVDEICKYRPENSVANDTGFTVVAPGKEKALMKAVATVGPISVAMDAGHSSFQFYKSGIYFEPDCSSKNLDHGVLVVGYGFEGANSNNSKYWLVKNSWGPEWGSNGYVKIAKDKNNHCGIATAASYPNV

[7] = biological target: Cathepsin K (Homo sapiens (Human), UniProt P43235); assay: Cathepsin K IC50; type: biochemical
Cathepsin K, sequence (P43235 115-329, species assumed): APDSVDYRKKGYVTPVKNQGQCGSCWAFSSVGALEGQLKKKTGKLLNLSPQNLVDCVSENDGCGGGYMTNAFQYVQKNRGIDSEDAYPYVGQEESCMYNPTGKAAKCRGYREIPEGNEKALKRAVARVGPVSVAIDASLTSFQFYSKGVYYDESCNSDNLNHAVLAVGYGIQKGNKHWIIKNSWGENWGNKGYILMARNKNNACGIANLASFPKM

[8] = system: USP2, USP6, USP10, USP15, USP16, USP21, USP25, USP28, USP46/UAF1; assay: DUB selectivity panel IC50; type: biochemical; settings: for DUB selectivity preference for USP30 v 9 DUBs: fold, minimum over nine DUBs; for IC50: range over the nine DUBs
[9] = biological target: Cathepsin S (Homo sapiens (Human), UniProt P25774); assay: Cathepsin S IC50; type: biochemical
Cathepsin S, sequence (P25774 115-331, species assumed): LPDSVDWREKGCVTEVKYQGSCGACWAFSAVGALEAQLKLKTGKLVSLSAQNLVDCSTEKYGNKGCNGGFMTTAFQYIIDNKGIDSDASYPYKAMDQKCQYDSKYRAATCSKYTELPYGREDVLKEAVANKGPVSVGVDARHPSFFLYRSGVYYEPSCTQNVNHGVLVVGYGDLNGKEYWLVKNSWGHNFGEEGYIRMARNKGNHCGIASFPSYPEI

[10] = USP30 biochemical IC50 assay, read-out: IC50
[11] = reference examples, USP30 biochemical IC50 assay, read-out: USP30 IC50

UCHL1, sequence (P09936 whole entry, species assumed): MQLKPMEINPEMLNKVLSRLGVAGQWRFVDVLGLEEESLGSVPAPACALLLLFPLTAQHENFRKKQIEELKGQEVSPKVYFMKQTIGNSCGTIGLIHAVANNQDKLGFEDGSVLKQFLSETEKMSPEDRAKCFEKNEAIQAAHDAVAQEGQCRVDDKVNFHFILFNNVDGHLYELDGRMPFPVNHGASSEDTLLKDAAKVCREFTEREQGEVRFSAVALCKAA

N#CN1CC[C@H](C(=O)Nc2ncc(-c3ccccc3)s2)C1 [D, reference compound]
DUB selectivity preference for USP30 v UCHL1 [1]: 0.8

COc1cc(F)c(C#N)cc1-c1cnc(C(=O)N[C@@H]2C[C@@H](C)N(C#N)C2)o1 [Example 9, 5-(5-cyano-4-fluoro-2-methoxyphenyl)-N-((3R,5R)-1-cyano-5-methylpyrrolidin-3-yl)oxazole-2-carboxamide]
IC50 [2, 10]: 0.002 µM

CC1CC(C(=O)Nc2ncc(-c3ccccc3)s2)CN1C#N (centres unmarked) [Reference Example E, reference compound]
DUB selectivity preference for USP30 v UCHL1 [1]: 1.5

COC[C@@H]1C[C@@H](NC(=O)c2nc(-c3cc(C#N)ccc3OC3CC3)co2)CN1C#N [Example 10, 4-(5-cyano-2-cyclopropoxyphenyl)-N-((3R,5S)-1-cyano-5-(methoxymethyl)pyrrolidin-3-yl)oxazole-2-carboxamide]
IC50 [2, 10]: 0.004 µM

COC[C@@H]1C[C@@H](NC(=O)c2ncc(-c3cc(C#N)ccc3OC(F)(F)F)o2)CN1C#N [Example 7, 5-(5-cyano-2-(trifluoromethoxy)phenyl)-N-((3R,5S)-1-cyano-5-(methoxymethyl)pyrrolidin-3-yl)oxazole-2-carboxamide]
IC50 [3]: 13.8 µM | IC50 [2, 10]: 0.003 µM | IC50 ([2]; read-out: DUB IC50 USP30): 0.003 µM | IC50 [4]: 60.9 µM | Selectivity preference for USP30 v cathepsins [5]: ≥ 4033 | IC50 [5]: ≥ 12.1 µM | IC50 [6]: 12.1 µM | IC50 [7]: 14.9 µM | IC50 [1]: > 300 µM | DUB selectivity preference for USP30 v 9 DUBs [8]: ≥ 1333 | IC50 [9]: > 30 µM

COC[C@@H]1C[C@@H](NC(=O)c2nc(-c3cc(C#N)ccc3OC)co2)CN1C#N [Example 6, 4-(5-cyano-2-methoxyphenyl)-N-((3R,5S)-1-cyano-5-(methoxymethyl)pyrrolidin-3-yl)oxazole-2-carboxamide]
IC50 [3]: 39.8 µM | IC50 [2, 10]: 0.002 µM | IC50 ([2]; read-out: DUB IC50 USP30): 0.002 µM | IC50 [4]: 52.1 µM | Selectivity preference for USP30 v cathepsins [5]: ≥ 19900 | IC50 [5]: ≥ 39.8 µM | IC50 [6]: 91.6 µM | IC50 [7]: 40.4 µM | IC50 [1]: > 300 µM | DUB selectivity preference for USP30 v 9 DUBs [8]: ≥ 700 | IC50 [8]: 1.4 to 258 µM | IC50 [9]: 64.8 µM

COc1ccc(C#N)cc1-c1cnc(C(=O)N[C@@H]2C[C@@H](C)N(C#N)C2)o1 [Example 4, 5-(5-cyano-2-methoxyphenyl)-N-((3R,5R)-1-cyano-5-methylpyrrolidin-3-yl)oxazole-2-carboxamide]
IC50 [3]: 294 µM | IC50 [4]: > 300 µM | IC50 [6]: > 300 µM | IC50 [7]: 165 µM | IC50 [1]: > 300 µM | IC50 [9]: > 300 µM

C[C@@H]1C[C@@H](NC(=O)c2ncc(-c3cc(C#N)ccc3OC(F)(F)F)o2)CN1C#N [Example 8, 5-(5-cyano-2-(trifluoromethoxy)phenyl)-N-((3R,5R)-1-cyano-5-methylpyrrolidin-3-yl)oxazole-2-carboxamide]
IC50 [2, 10]: 0.004 µM

COC[C@H]1C[C@@H](NC(=O)c2ncc(-c3cc(C#N)ccc3OC3CC3)o2)CN1C#N [Example 11, 5-(5-cyano-2-cyclopropoxyphenyl)-N-((3R,5R)-1-cyano-5-(methoxymethyl)pyrrolidin-3-yl)oxazole-2-carboxamide]
IC50 [3]: 15.4 µM | IC50 [2, 10]: 0.01 µM | IC50 [4]: 83 µM | Selectivity preference for USP30 v cathepsins [5]: ≥ 1540 | IC50 [5]: ≥ 15.4 µM | IC50 [6]: > 100 µM | IC50 [7]: 100 µM | IC50 [1]: > 300 µM | DUB selectivity preference for USP30 v 9 DUBs [8]: ≥ 7820 | IC50 [9]: 130 µM

N#Cc1ccc(-c2cnc(NC(=O)[C@H]3CCN(C#N)C3)s2)cc1OC(F)(F)F [B, reference compound]
IC50 [1]: 0.52 µM | DUB selectivity preference for USP30 v UCHL1 [1]: 3.0

COc1cc(-c2cnc(NC(=O)[C@H]3CCN(C#N)C3)s2)ccc1C#N [C, reference compound]
IC50 ([2]; read-out: DUB IC50 USP30): 0.16 µM | IC50 [2, 11]: 0.16 µM | IC50 [1]: 0.21 µM | DUB selectivity preference for USP30 v UCHL1 [1]: 1.3

COC[C@@H]1C[C@@H](NC(=O)c2ncc(-c3cc(C#N)ccc3OC)o2)CN1C#N [Example 5, 5-(5-cyano-2-methoxyphenyl)-N-((3R,5S)-1-cyano-5-(methoxymethyl)pyrrolidin-3-yl)oxazole-2-carboxamide]
IC50 [2, 10]: 0.003 µM

COC[C@H]1C[C@@H](NC(=O)c2nc(-c3cc(C#N)ccc3OC3CC3)co2)CN1C#N [Example 12, 4-(5-cyano-2-cyclopropoxyphenyl)-N-((3R,5R)-1-cyano-5-(methoxymethyl)pyrrolidin-3-yl)oxazole-2-carboxamide]
IC50 [3]: > 300 µM | IC50 [2, 10]: 0.068 µM | IC50 [4]: > 300 µM | Selectivity preference for USP30 v cathepsins [5]: ≥ 2788 | IC50 [5]: ≥ 189 µM | IC50 [6]: 190 µM | IC50 [7]: > 300 µM | IC50 [1]: > 300 µM | DUB selectivity preference for USP30 v UCHL1 [1]: greater than 4412 | DUB selectivity preference for USP30 v UCHL1 ([1]; listed as Ex. 12): > 4412 | DUB selectivity preference for USP30 v 9 DUBs [8]: ≥ 110 | IC50 [9]: > 300 µM

COc1cccc(-c2cc(C(=O)N[C@@H]3CCN(C#N)C3)on2)c1 [Reference Example A, reference compound]
IC50 [3]: 2.9 µM | IC50 ([2]; read-out: DUB IC50 USP30): 0.068 µM | IC50 [2, 11]: 0.068 µM | Selectivity preference for USP30 v cathepsins [5]: 11.6 - 129 | IC50 [5]: 0.79 to 8.8 µM | fold more potent against USP30 than against cathepsin K [7]: 11.6 fold | DUB selectivity preference for USP30 v 9 DUBs [8]: ≥ 2.2 | IC50 [8]: 0.15 to 22.4 µM
